Experiments:
[1] = target: T1, human enzyme NAMPT (full length) (Homo sapiens, UniProt P43490); test: NMN fluorescence biochemical assay (stimulation of NMN synthesis by NAMPT); details: for EC50: NMN fluorescence assay, purified human NAMPT 100 nM, concentration giving half-maximal activation, read-out: Enzymatic EC50; for Enzymatic Emax: fold change of maximal activation compared to DMSO
T1 construct: human enzyme NAMPT (full length)
In short: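 Full-length human NAMPT (100 nM) was preincubated 15 min at 37 °C with compound in 50 mM Tris-HCl pH 7.5, 10 mM MgCl2, 2 mM DTT, then reacted 1 h at 37 °C with 50 μM NAM, 100 μM PRPP, 4 mM ATP (stated solution concentrations). NMN was derivatised with acetophenone/KOH then formic acid and read at Ex/Em 382/445 nm; EC50 and Emax (fold over DMSO) reported.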

[2] = test system: endogenous NAMPT in U2OS cells; test: Cellular NAD+ modulation assay (NAD/NADH-Glo, U2OS cells); type: cell-based; details: Homo sapiens, 24 hours incubation, cellular NAD+; for maximal fold induction: read-out: Cellular Emax
In short: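 Endogenous NAMPT stimulation in U2OS cells treated with compound dilution series for 24 h at 37 °C. Cells lysed with DTAB base, acid-treated 15 min at 60 °C, neutralized, NAD+ read by NAD/NADH-Glo luminescence after 40 min at room temperature. EC50 and Emax (fold over DMSO) derived.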

T1 sequence (P43490 whole entry): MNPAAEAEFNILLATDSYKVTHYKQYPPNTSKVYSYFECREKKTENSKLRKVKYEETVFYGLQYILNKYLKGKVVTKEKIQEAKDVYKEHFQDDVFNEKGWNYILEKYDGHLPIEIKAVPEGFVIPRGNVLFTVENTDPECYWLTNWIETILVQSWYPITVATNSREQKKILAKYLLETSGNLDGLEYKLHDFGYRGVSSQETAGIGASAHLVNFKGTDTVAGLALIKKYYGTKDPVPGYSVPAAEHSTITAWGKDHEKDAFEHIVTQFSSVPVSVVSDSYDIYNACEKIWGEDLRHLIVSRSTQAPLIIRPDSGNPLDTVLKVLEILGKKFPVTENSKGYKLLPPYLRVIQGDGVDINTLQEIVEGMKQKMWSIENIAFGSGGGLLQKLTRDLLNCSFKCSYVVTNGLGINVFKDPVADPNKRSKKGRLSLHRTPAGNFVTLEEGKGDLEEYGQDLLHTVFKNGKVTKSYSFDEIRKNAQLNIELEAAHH

COc1ncc(CN2C(=O)c3ccccc3C2Cc2c(Cl)cnn2C)s1 (stereo not shown) [Compound 591, 3-((4-chloro-1-methyl-1H-pyrazol-5-yl)methyl)-2-((2-methoxythiazol-5-yl)methyl)isoindolin-1-one]
EC50 [1]: ≥ 5 µM | Enzymatic Emax [1]: B (3≥B>2) | EC50 [2]: 0.5 to 5 µM | maximal fold induction [2]: 1.2 to 1.5

Cn1ncc(Cl)c1CC1c2ccccc2C(=O)N1Cc1c[nH]c(=O)s1 (stereo not shown) [Compound 592, 5-((1-((4-chloro-1-methyl-1H-pyrazol-5-yl)methyl)-3-oxoisoindolin-2-yl)methyl)thiazol-2(3H)-one]
EC50 [1]: < 0.5 µM | Enzymatic Emax [1]: A (A>3) | EC50 [2]: < 0.5 µM | maximal fold induction [2]: > 1.5

COc1cc(CN2C(=O)c3ccccc3C2Cc2c(Cl)cnn2C)on1 (stereo not shown) [Compound 593, 3-((4-chloro-1-methyl-1H-pyrazol-5-yl)methyl)-2-((3-methoxyisoxazol-5-yl)methyl)isoindolin-1-one]
EC50 [1]: ≥ 5 µM | Enzymatic Emax [1]: B (3≥B>2) | EC50 [2]: 0.5 to 5 µM | maximal fold induction [2]: 1.2 to 1.5

Cc1noc2cc(CN3C(=O)c4ccccc4C3Cc3c(Cl)cnn3C)ccc12 (stereo not shown) [Compound 594, 3-((4-chloro-1-methyl-1H-pyrazol-5-yl)methyl)-2-((3-methylbenzo[d]isoxazol-6-yl)methyl)isoindolin-1-one]
EC50 [1]: ≥ 5 µM | Enzymatic Emax [1]: B (3≥B>2) | EC50 [2]: < 0.5 µM | maximal fold induction [2]: 1.2 to 1.5

COc1ccc(CN2C(=O)c3ccccc3C2Cc2c(C)ncnc2C#N)cn1 (stereo not shown) [Compound 595, 5-((2-((6-methoxypyridin-3-yl)methyl)-3-oxoisoindolin-1-yl)methyl)-6-methylpyrimidine-4-carbonitrile]
EC50 [1]: 0.5 to 5 µM | Enzymatic Emax [1]: B (3≥B>2) | EC50 [2]: 0.5 to 5 µM | maximal fold induction [2]: > 1.5

COc1ccc(CN2C(=O)c3c(F)cc(Cl)cc3C2Cc2c(C)ccnc2C#N)cn1 (stereo not shown) [Compound 596, 3-((6-chloro-4-fluoro-2-((6-methoxypyridin-3-yl)methyl)-3-oxoisoindolin-1-yl)methyl)-4-methylpicolinonitrile]
EC50 [1]: 0.5 to 5 µM | Enzymatic Emax [1]: B (3≥B>2) | EC50 [2]: 0.5 to 5 µM | maximal fold induction [2]: > 1.5

COc1ccc(CN2C(=O)c3ccccc3C2Cc2c(C)ncnc2C#N)cc1 (stereo not shown) [Compound 597, 5-((2-(4-methoxybenzyl)-3-oxoisoindolin-1-yl)methyl)-6-methylpyrimidine-4-carbonitrile]
EC50 [1]: 0.5 to 5 µM | Enzymatic Emax [1]: B (3≥B>2) | EC50 [2]: < 0.5 µM | maximal fold induction [2]: > 1.5

COc1ccc(CN2C(=O)c3ccccc3C2Cc2c(C#N)ccnc2C#N)cn1 (stereo not shown) [Compound 598, 3-((2-((6-methoxypyridin-3-yl)methyl)-3-oxoisoindolin-1-yl)methyl)pyridine-2,4-dicarbonitrile]
EC50 [1]: 0.5 to 5 µM | Enzymatic Emax [1]: B (3≥B>2) | EC50 [2]: 0.5 to 5 µM | maximal fold induction [2]: > 1.5

COC1CC2(CC(CN3C(=O)c4ccccc4C3Cc3c(Cl)cnn3C)C2)C1 (stereo not shown) [Compound 599, 3-((4-chloro-1-methyl-1H-pyrazol-5-yl)methyl)-2-((6-methoxyspiro[3.3]heptan-2-yl)methyl)isoindolin-1-one]
EC50 [1]: ≥ 5 µM | Enzymatic Emax [1]: C (2≥C) | EC50 [2]: 0.5 to 5 µM | maximal fold induction [2]: 1.2 to 1.5

Cn1ncc(Cl)c1CC1c2ccccc2C(=O)N1Cc1ccc2nonc2c1 (stereo not shown) [Compound 600, 2-(benzo[c][1,2,5]oxadiazol-5-ylmethyl)-3-((4-chloro-1-methyl-IH-pyrazol-5-yl)methyl)isoindolin-1-one]
EC50 [1]: ≥ 5 µM | Enzymatic Emax [1]: C (2≥C) | EC50 [2]: 5 to 50 µM | maximal fold induction [2]: ≤ 1.2

Cn1ncc(Cl)c1CC1c2ccccc2C(=O)N1C/C(F)=C/c1nn[nH]c1F (stereo not shown) [Compound 601, (Z)-3-((4-chloro-1-methyl-1H-pyrazol-5-yl)methyl)-2-(2-fluoro-3-(5-fluoro-1H-1,2,3-triazol-4-yl)allyl)isoindolin-1-one]
EC50 [1]: 0.5 to 5 µM | Enzymatic Emax [1]: A (A>3) | EC50 [2]: < 0.5 µM | maximal fold induction [2]: 1.2 to 1.5

Cn1ncc(Cl)c1CC1c2ccccc2C(=O)N1Cc1cc(=O)[nH]o1 (stereo not shown) [Compound 602, 5-((1-((4-chloro-1-methyl-1H-pyrazol-5-yl)methyl)-3-oxoisoindolin-2-yl)methyl)isoxazol-3(2H)-one]
EC50 [1]: ≥ 5 µM | Enzymatic Emax [1]: B (3≥B>2) | EC50 [2]: 0.5 to 5 µM | maximal fold induction [2]: > 1.5

COc1ncc(CN2C(=O)c3ccccc3C2Cc2c(Cl)cnn2C)o1 (stereo not shown) [Compound 603, 3-((4-chloro-1-methyl-1H-pyrazol-5-yl)methyl)-2-((2-methoxyoxazol-5-yl)methyl)isoindolin-1-one]
EC50 [1]: ≥ 5 µM | Enzymatic Emax [1]: C (2≥C) | EC50 [2]: 0.5 to 5 µM | maximal fold induction [2]: 1.2 to 1.5

Cn1ncc(Cl)c1CC1c2ccccc2C(=O)N1Cc1cnc(O)o1 (stereo not shown) [Compound 605, 3-((4-chloro-1-methyl-1H-pyrazol-5-yl)methyl)-2-((2-hydroxyoxazol-5-yl)methyl)isoindolin-1-one]
EC50 [1]: 0.5 to 5 µM | Enzymatic Emax [1]: A (A>3) | EC50 [2]: < 0.5 µM | maximal fold induction [2]: > 1.5

Cn1ncc(Cl)c1CC1c2ccccc2C(C)(C)N1C/C=C/c1c[nH]nn1 (stereo not shown) [Compound 606, (E)-2-(3-(1H-1,2,3-triazol-4-yl)allyl)-3-((4-chloro-1-methyl-1H-pyrazol-5-yl)methyl)-1,1-dimethylisoindoline]
EC50 [1]: 0.5 to 5 µM | Enzymatic Emax [1]: A (A>3) | EC50 [2]: < 0.5 µM | maximal fold induction [2]: > 1.5

Cn1ncc(Cl)c1CC1c2ccccc2C(C)(C)N1CC1CC(C(N)=O)C1 (stereo not shown) [Compound 607, 3-((3-((4-chloro-1-methyl-1H-pyrazol-5-yl)methyl)-1,1-dimethylisoindolin-2-yl)methyl)cyclobutane-1-carboxamide]
EC50 [1]: ≥ 5 µM | Enzymatic Emax [1]: C (2≥C) | EC50 [2]: 5 to 50 µM | maximal fold induction [2]: 1.2 to 1.5

Cn1ncc(Cl)c1CC1c2ccccc2C(C)(C)N1Cc1ccc2[nH]nnc2c1 (stereo not shown) [Compound 608, 5-((3-((4-chloro-1-methyl-IH-pyrazol-5-yl)methyl)-1,1-dimethylisoindolin-2-yl)methyl)-1H-benzo[d][1,2,3]triazole]
EC50 [1]: < 0.5 µM | Enzymatic Emax [1]: A (A>3) | EC50 [2]: 0.5 to 5 µM | maximal fold induction [2]: > 1.5

COc1ccc(CN2C(=O)c3ccccc3C2Cc2c(Cl)ccc(=O)n2C)cn1 (stereo not shown) [Compound 609, 3-((3-chloro-1-methyl-6-oxo-1,6-dihydropyridin-2-yl)methyl)-2-((6-methoxypyridin-3-yl)methyl)isoindolin-1-one]
EC50 [1]: 0.5 to 5 µM | Enzymatic Emax [1]: B (3≥B>2) | EC50 [2]: 0.5 to 5 µM | maximal fold induction [2]: > 1.5

Cn1ncc(Cl)c1CC1c2ccccc2CCN1CC1CC2(CNC(=O)O2)C1 (stereo not shown) [Compound 610, 2-((1-((4-chloro-1-methyl-1H-pyrazol-5-yl)methyl)-3,4-dihydroisoquinolin-2(1H)-yl)methyl)-5-oxa-7-azaspiro[3.4]octan-6-one]
EC50 [1]: ≥ 5 µM | Enzymatic Emax [1]: B (3≥B>2) | EC50 [2]: 0.5 to 5 µM | maximal fold induction [2]: 1.2 to 1.5

Cn1ncc(Cl)c1CC1c2ccccc2C(=O)N1CC1CC2(CNC(=O)N2)C1 (stereo not shown) [Compound 611, 3-((4-chloro-1-methyl-1H-pyrazol-5-yl)methyl)-2-((6-oxo-5,7-diazaspiro[3.4]octan-2-yl)methyl)isoindolin-1-one]
EC50 [1]: ≥ 5 µM | Enzymatic Emax [1]: C (2≥C) | EC50 [2]: 5 to 50 µM | maximal fold induction [2]: 1.2 to 1.5

Cn1ncc(Cl)c1CC1c2ccccc2C(C)(C)N1Cc1ccc2[nH]c(=O)oc2c1 (stereo not shown) [Compound 613, 6-((3-((4-chloro-1-methyl-1H-pyrazol-5-yl)methyl)-1,1-dimethylisoindolin-2-yl)methyl)benzo[d]oxazol-2(3H)-one]
EC50 [1]: < 0.5 µM | Enzymatic Emax [1]: A (A>3) | EC50 [2]: 0.5 to 5 µM | maximal fold induction [2]: 1.2 to 1.5

Cn1ncc(Cl)c1CC1c2ccccc2C(C)(C)N1Cc1cnc(O)s1 (stereo not shown) [Compound 614, 5-((3-((4-chloro-1-methyl-1H-pyrazol-5-yl)methyl)-1,1-dimethylisoindolin-2-yl)methyl)thiazol-2-ol]
EC50 [1]: 0.5 to 5 µM | Enzymatic Emax [1]: B (3≥B>2) | EC50 [2]: 5 to 50 µM | maximal fold induction [2]: ≤ 1.2

COc1ccc(CN2C(=O)c3ncsc3C2Cc2c(Cl)cnn2C)cc1 (stereo not shown) [Compound 615, 6-((4-chloro-1-methyl-1H-pyrazol-5-yl)methyl)-5-(4-methoxybenzyl)-5,6-dihydro-4H-pyrrolo[3,4-d]thiazol-4-one]
EC50 [1]: ≥ 5 µM | Enzymatic Emax [1]: B (3≥B>2) | EC50 [2]: 0.5 to 5 µM | maximal fold induction [2]: 1.2 to 1.5

[2H]C([2H])(c1c(Cl)cnn1C)C1c2ccccc2C(C)(C)N1CC1CC2(CNC(=O)O2)C1 (stereo not shown) [Compound 616, 2-((3-((4-chloro-1-methyl-1H-pyrazol-5-yl)methyl-d2)-1,1-dimethylisoindolin-2-yl)methyl)-5-oxa-7-azaspiro[3.4]octan-6-one]
EC50 [1]: 0.5 to 5 µM | Enzymatic Emax [1]: A (A>3) | EC50 [2]: < 0.5 µM | maximal fold induction [2]: 1.2 to 1.5

COc1ccc(CN2C(=O)c3ccc(OC(F)F)cc3C2Cc2c(Cl)cnn2C)cn1 (stereo not shown) [Compound 619, 3-((4-chloro-1-methyl-1H-pyrazol-5-yl)methyl)-5-(difluoromethoxy)-2-((6-methoxypyridin-3-yl)methyl)isoindolin-1-one]
EC50 [1]: ≥ 5 µM | Enzymatic Emax [1]: A (A>3) | EC50 [2]: 0.5 to 5 µM | maximal fold induction [2]: > 1.5
